One assay concerns the target human FGFR-3 (Homo sapiens (Human), UniProt P22607). In words: FGFR-3 kinase assay (TR-FRET). The class given is biochemical. The following applies: 10 μM ATP; compounds of the invention.
A further assay concerns the target human mTOR (Homo sapiens (Human), UniProt P42345). Briefly: mTOR kinase assay (TR-FRET, for comparative purposes). The following applies: for inhibition at 1 µM: read-out: mTOR % inhibition @ 1 μM. Format: biochemical. From the text: mTOR inhibitory activity of the compounds of the present invention was quantified employing the TR-FRET based mTOR assay as described in the following paragraphs: Recombinant fusion tagged mTOR protein [glutathione-S-transferase (GST) fused to human mTOR amino acids from 1360 to 2549], expressed in insect cells and purified by glutathione-sepharose affinity chromatography, was purchased from Invitrogen (Cat.-No. 4753) and used as enzyme. As substrate for the kinase reaction, a recombinant fusion protein of GFP and 4E-BP1 (purchased from Invitrogen, Cat.-No. PV4759) was used. Test compounds were dissolved in DMSO to generate 10 mM stock solutions. […] The resulting mixture was incubated for 1 h at 22° C. to allow formation of the complex between the phosphorylated substrate and the Tb-chelate labelled antibody. Subsequently, the amount of phosphorylated substrate was evaluated by measurement of the resonance energy transfer from the Tb-chelate to the GFP. For this, the fluorescence emissions at 495 nm and 520 nm after excitation at 340 nm was measured in an Envision 2104 multilabel reader (Perkin-Elmer). The ratio of the emissions at 520 nm and at 495 nm was taken as the measure for the amount of phosphorylated substrate.
(In general: In TR-FRET formats the signal depends on donor and acceptor labels being close together.)

Where [1] appears, read: 1 μM test compound, mean inhibition values.

Counter-ions that a name gives are not always drawn. Like-named read-outs stand apart in the source and are kept apart here.

Chain of human mTOR (P42345 1360-2549): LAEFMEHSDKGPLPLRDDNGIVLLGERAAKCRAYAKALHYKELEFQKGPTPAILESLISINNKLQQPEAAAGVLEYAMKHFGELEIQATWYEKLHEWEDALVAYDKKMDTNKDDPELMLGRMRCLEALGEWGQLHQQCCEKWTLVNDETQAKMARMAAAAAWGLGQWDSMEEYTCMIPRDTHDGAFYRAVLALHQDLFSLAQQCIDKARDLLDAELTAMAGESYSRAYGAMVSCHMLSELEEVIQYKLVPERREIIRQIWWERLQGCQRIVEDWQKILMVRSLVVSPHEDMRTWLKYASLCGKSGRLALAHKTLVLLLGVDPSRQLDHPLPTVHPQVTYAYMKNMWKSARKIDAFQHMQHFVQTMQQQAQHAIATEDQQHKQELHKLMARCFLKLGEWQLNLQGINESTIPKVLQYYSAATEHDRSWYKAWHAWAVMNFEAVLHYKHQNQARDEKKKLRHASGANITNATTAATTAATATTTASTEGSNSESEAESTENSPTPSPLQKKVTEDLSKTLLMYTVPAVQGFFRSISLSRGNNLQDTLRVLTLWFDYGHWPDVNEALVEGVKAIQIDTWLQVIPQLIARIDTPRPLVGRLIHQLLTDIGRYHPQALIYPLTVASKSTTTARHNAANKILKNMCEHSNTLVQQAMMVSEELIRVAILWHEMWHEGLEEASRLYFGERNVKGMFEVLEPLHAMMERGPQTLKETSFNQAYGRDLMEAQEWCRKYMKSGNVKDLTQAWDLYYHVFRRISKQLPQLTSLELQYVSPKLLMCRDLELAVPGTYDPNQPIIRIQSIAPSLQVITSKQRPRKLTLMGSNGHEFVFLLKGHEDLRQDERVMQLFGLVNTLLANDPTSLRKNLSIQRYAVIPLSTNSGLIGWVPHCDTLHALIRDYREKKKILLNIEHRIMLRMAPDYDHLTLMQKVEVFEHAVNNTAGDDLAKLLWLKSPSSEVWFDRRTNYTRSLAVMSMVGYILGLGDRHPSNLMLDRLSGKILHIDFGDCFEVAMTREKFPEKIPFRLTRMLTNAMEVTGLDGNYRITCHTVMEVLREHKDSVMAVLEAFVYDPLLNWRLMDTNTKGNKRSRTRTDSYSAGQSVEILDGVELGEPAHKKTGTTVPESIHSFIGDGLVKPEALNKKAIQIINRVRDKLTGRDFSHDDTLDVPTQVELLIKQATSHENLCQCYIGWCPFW
Chain of human FGFR-3 (P22607 397-806): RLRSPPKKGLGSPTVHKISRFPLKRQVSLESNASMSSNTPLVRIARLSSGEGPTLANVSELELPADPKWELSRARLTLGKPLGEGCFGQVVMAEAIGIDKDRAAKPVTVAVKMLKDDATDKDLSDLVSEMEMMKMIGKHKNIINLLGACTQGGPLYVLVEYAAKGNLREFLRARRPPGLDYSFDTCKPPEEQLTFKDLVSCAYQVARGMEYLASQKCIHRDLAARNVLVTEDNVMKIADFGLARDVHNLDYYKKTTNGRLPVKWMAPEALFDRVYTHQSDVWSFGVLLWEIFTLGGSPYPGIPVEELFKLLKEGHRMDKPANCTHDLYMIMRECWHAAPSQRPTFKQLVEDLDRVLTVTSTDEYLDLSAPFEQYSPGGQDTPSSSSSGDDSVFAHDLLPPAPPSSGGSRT

Consider `COc1cc(C)cc2cc(-c3c(CN4CCN(C(=O)OC(C)(C)C)CC4)cn4ncnc(N)c34)sc12` [Example 22, tert-Butyl 4-{[4-amino-5-(7-methoxy-5-methyl-1-benzothiophen-2-yl)pyrrolo[2,1-f][1,2,4]triazin-6-yl]methyl}piperazine-1-carboxylate trifluoroacetate], for which the IC50 – broadly, the concentration that gives 50% inhibition – against human FGFR-3 came to 10.8 nM. For the same compound, the inhibition (commonly how much of the control response was suppressed) at 1 µM on human mTOR worked out at 1.6%.

`COc1cc(C)cc2cc(-c3c(CN4CCOCC4)cn4ncnc(N)c34)sc12` [Example 23, 5-(7-Methoxy-5-methyl-1-benzothiophen-2-yl)-6-(morpholin-4-ylmethyl)pyrrolo[2,1-f][1,2,4]triazin-4-amine] came in with an IC50 at human FGFR-3 of 17.4 nM. Moreover, the inhibition at 1 µM at human mTOR (setting [1]) was found to be 2%.

Consider `CCOC(=O)COCc1cn2ncnc(N)c2c1-c1cc2cc(C)cc(OC)c2s1` [Example 4, Ethyl {[4-amino-5-(7-methoxy-5-methyl-1-benzothiophen-2-yl)pyrrolo[2,1-f][1,2,4]triazin-6-yl]-methoxy}acetate], for which, at human FGFR-3, the 50% inhibitory concentration (IC50) amounted to 49.9 nM. The inhibition at 1 µM at human mTOR (setting [1]) was determined as 8.4%.

The compound `COc1cc(Cl)cc2cc(-c3c(CN4CCNC(=O)C4)cn4ncnc(N)c34)sc12` [Example 31, 4-{[4-Amino-5-(5-chloro-7-methoxy-1-benzothiophen-2-yl)pyrrolo[2,1-f][1,2,4]triazin-6-yl]methyl}-piperazin-2-one] registered a half-maximal inhibitory concentration (IC50) against human FGFR-3 of 0.3 nM. In addition, at human mTOR (setting [1]), the inhibition at 1 µM was found to be 9.1%.

Consider `COc1cc(C)cc2cc(-c3c(CNC(C)C(N)=O)cn4ncnc(N)c34)sc12` (racemic) [Example 12, rac-N^2-{[4-Amino-5-(7-methoxy-5-methyl-1-benzothiophen-2-yl)pyrrolo[2,1-f][1,2,4]triazin-6-yl]-methyl}alaninamide], for which the IC50 at human FGFR-3 amounted to 11.6 nM. Also, the inhibition at 1 µM on human mTOR (setting [1]) was found to be 7.2%.

For the compound `COc1cc(C)cc2cc(-c3c(CN4CCC(O)C4)cn4ncnc(N)c34)sc12` (racemic) [Example 18, rac-1-{[4-Amino-5-(7-methoxy-5-methyl-1-benzothiophen-2-yl)pyrrolo[2,1-f][1,2,4]triazin-6-yl]-methyl}pyrrolidin-3-ol dihydrochloride], inhibition against human FGFR-3 was half-maximal at 1.3 nM (IC50). For the same compound, on human mTOR (setting [1]), the “mTOR % inhibition @ 1 μM” value is on record as “no inhib. effect detect”.

In turn, `COc1cc(C)cc2cc(-c3c(COCCCO)cn4ncnc(N)c34)sc12` [Example 1, 3-{[4-Amino-5-(7-methoxy-5-methyl-1-benzothiophen-2-yl)pyrrolo[2,1-f][1,2,4]triazin-6-yl]-methoxy}propan-1-ol hydrochloride] displayed an IC50 against human FGFR-3 of 18.2 nM. Also, the inhibition at 1 µM at human mTOR came to 1.9%.

At human FGFR-3, `COc1cc(C)cc2cc(-c3c(CNC(C)=O)cn4ncnc(N)c34)sc12` [Example 9, N-{[4-Amino-5-(7-methoxy-5-methyl-1-benzothiophen-2-yl)pyrrolo[2,1-f][1,2,4]triazin-6-yl]-methyl}acetamide] returned a concentration for half-maximal inhibition (IC50) of 0.2 nM. Also, the “mTOR % inhibition @ 1 μM” value at human mTOR (setting [1]) is listed as “no inhib. effect detect”.

`COc1cc(C)cc2cc(-c3c(COCC(=O)O)cn4ncnc(N)c34)sc12` [Example 5, {[4-Amino-5-(7-methoxy-5-methyl-1-benzothiophen-2-yl)pyrrolo[2,1-f][1,2,4]triazin-6-yl]-methoxy}acetic acid]: at human FGFR-3, the IC50 stood at 72.4 nM. Also, the inhibition at 1 µM on human mTOR (setting [1]) stood at 2.7%.

`COc1cc(C)cc2cc(-c3c(CN(C)CC(N)=O)cn4ncnc(N)c34)sc12` [Example 14, N^2-{[4-Amino-5-(7-methoxy-5-methyl-1-benzothiophen-2-yl)pyrrolo[2,1-f][1,2,4]triazin-6-yl]-methyl}-N^2-methylglycinamide] registered an IC50 against human FGFR-3 of 0.8 nM. The inhibition at 1 µM at human mTOR (setting [1]) was 0.3%.

Turning to `COc1cc(C)cc2cc(-c3c(CNCCCO)cn4ncnc(N)c34)sc12` [Example 20, 3-({[4-Amino-5-(7-methoxy-5-methyl-1-benzothiophen-2-yl)pyrrolo[2,1-f][1,2,4]triazin-6-yl]-methyl}amino)propan-1-ol dihydrochloride], the half-maximal inhibitory concentration (IC50) against human FGFR-3 came out at 15.2 nM. Also, the “mTOR % inhibition @ 1 μM” value on human mTOR (setting [1]) is given as “no inhib. effect detect”.

Consider `COc1cc(C)cc2cc(-c3c(CNCCO)cn4ncnc(N)c34)sc12` [Example 10, 2-({[4-Amino-5-(7-methoxy-5-methyl-1-benzothiophen-2-yl)pyrrolo[2,1-f][1,2,4]triazin-6-yl]-methyl}amino)ethanol dihydrochloride], for which the IC50 against human FGFR-3 was 1.4 nM. In addition, the inhibition at 1 µM at human mTOR was found to be 10.3%.

As for `COc1cc(C)cc2cc(-c3c(COCCN)cn4ncnc(N)c34)sc12` [Example 8, 6-[(2-Aminoethoxy)methyl]-5-(7-methoxy-5-methyl-1-benzothiophen-2-yl)pyrrolo[2,14][1,2,4]-triazin-4-amine dihydrochloride], on human FGFR-3, half-maximal inhibition (IC50) was put at 0.2 nM. Further, the inhibition at 1 µM on human mTOR (setting [1]) is 4.7%.

On to `COc1cc(C)cc2cc(-c3c(CNCCNC(C)=O)cn4ncnc(N)c34)sc12` [Example 24, N-[2-({[4-Amino-5-(7-methoxy-5-methyl-1-benzothiophen-2-yl)pyrrolo[2,1-f][1,2,4]triazin-6-yl]-methyl}amino)ethyl]acetamide trifluoroacetate], for which, on human FGFR-3, half-maximal inhibition (IC50) required 8.7 nM. Further, the inhibition at 1 µM at human mTOR worked out at 0.3%.

The record behind these values is patent US9598416B2, “Substituted benzothienyl-pyrrolotriazines and uses thereof in the treatment cancer” (Bayer Intellectual Property GmbH, priority 2011, dated 2017).
